Experimental data published in patent US4892875A, “Substituted heterocyclylalkyl esters of 1,4-dihydropyridine-3,5-dicarboxylic acids” (Takeda Chemical Industries, Ltd., priority 1982, dated 1990).
Where a name gives a salt, the structure may show the parent alone. Read-outs that look alike come from different tables or passages of the source.

Experiments:
[1] = test system: spontaneously hypertensive rats; assay: Antihypertensive action (systolic blood pressure, caudal artery) in male spontaneously hypertensive rats; assay type: in vivo, rat; conditions: 10 mg/kg oral; for Change in blood pressure 1 hr. after treatment / Change in blood pressure 5 hrs. after treatment: after minus before medication, * P < 0.05 vs control; for Duration of antihypertensive effect: measured 1, 5, 8 and 24 hours after administration
Protocol: Male spontaneously hypertensive rats aged 10 to 11 weeks were used (in groups of 3 to 6 individuals). […] Each test compound was suspended in a 5% solution of gum arabic and orally administered. The dosage was 10 mg/kg for all compounds. Animals in a control group was given the above solution of gum arabic only.

[2] = test system: spontaneously hypertensive rats; assay: Renal blood flow increasing effect (renal circulation improving effect) in anesthetized male spontaneously hypertensive rats; assay type: in vivo; conditions: Rattus norvegicus
Protocol: Male spontaneously hypertensive rats aged 10 to 11 weeks (3 to 6 animals per group) were anesthetized with pentobarbital and used. After laparotomy, an electromagnetic flowmeter probe (Narco) was fitted to the left renal artery and the renal blood flow was continuously recorded on a polygraph (Sanei Sokki K.K.). […] Each test compound was dissolved in polyethylene glycol 400 to prepare a stock solution. This stock solution was diluted five-fold with physiological saline and the dilution was intravenously administered to rats in a volume of 0.5 ml/kg body weight. The dosage was 0.01 mg/kg for all test compounds. The renal blood flow was measured over a period of 40 minutes following the medication. The values shown are: [formula]

[3] = 1 min, 0.01 mg/kg intravenous, 1 minute, * P < 0.05 vs control, read-out: Change in renal blood flow, 1 Minute after medication
[4] = 20 min, 0.01 mg/kg intravenous, 20 minutes, * P < 0.05 vs control, read-out: Change in renal blood flow, 20 Minutes after medication
[5] = 40 min, 0.01 mg/kg intravenous, 40 minutes, * P < 0.05 vs control, read-out: Change in renal blood flow, 40 Minutes after medication

Row | Structure (SMILES) | Change in blood pressure 1 hr. after treatment [1] [mmHg] | Change in blood pressure 5 hrs. after treatment [1] | Duration of antihypertensive effect [1] | change in vivo at 0.01 mg/kg [2, 3] [%] | change in vivo at 0.01 mg/kg [2, 4] [%] | change in vivo at 0.01 mg/kg [2, 5] [%] | change in vivo at 0.01 mg/kg ([2]; iv, 1 min, read-out: Change in renal blood flow, 1 Minute after medication) [%] | change in vivo at 0.01 mg/kg ([2]; iv, 20 min, read-out: Change in renal blood flow, 20 Minutes after medication) [%] | change in vivo at 0.01 mg/kg ([2]; iv, 40 min, read-out: Change in renal blood flow, 40 Minutes after medication) [%]
1 | COC(=O)C1=C(C)NC(C)=C(C(=O)OCCN2CCN(C(c3ccccc3)c3ccccc3)CC2)C1c1cccc([N+](=O)[O-])c1.Cl.Cl (stereo not drawn) [Example 1, 2-(4-benzhydryl-1-piperazinyl)ethyl methyl 2,6-dimethyl-4-(3-nitrophenyl)-1,4-dihydropyridine-3,5-dicarboxylate dihydrochloride] | -89 | -91 mmHg | > 24 h | 10.4 | 13.4 | 12.8 | – | – | –
2 | COC(=O)C1=C(C)NC(C)=C(C(=O)OCCN2CCN(C(c3ccccc3)c3ccccc3)CC2)C1c1cccc(Cl)c1Cl (stereo not drawn) [Example 6, 2-(4-benzhydryl-1-piperazinyl)ethyl methyl 4-(2,3-dichlorophenyl)-2,6-dimethyl-1,4-dihydropyridine-3,5-dicarboxylate] | -30 | -33 mmHg | 8 to 24 h | 4.5 | 7.5 | 6 | – | – | –
3 | COC(=O)C1=C(C)NC(C)=C(C(=O)OCCN2CCN(C(c3ccc(F)cc3)c3ccc(F)cc3)CC2)C1c1cccc([N+](=O)[O-])c1 (stereo not drawn) [Example 8, 2-[4-(4,4'-difluorobenzhydryl)-1-piperazinyl]ethyl methyl 2,6-dimethyl-4-(3-nitrophenyl)-1,4-dihydropyridine-3,5-dicarboxylate] | -96 | -98 mmHg | > 24 h | 5.7 | 6.4 | 9.7 | – | – | –
4 | COC(=O)C1=C(C)NC(C)=C(C(=O)OCCN2CCN(C(c3ccc(OC)cc3)c3ccc(OC)cc3)CC2)C1c1cccc([N+](=O)[O-])c1 (stereo not drawn) [Example 10, 2-[4-(4,4'-dimethoxybenzhydryl)-1-piperazinyl]ethyl methyl 2,6-dimethyl-4-(3-nitrophenyl)-1,4-dihydropyridine-3,5-dicarboxylate] | -88 | -57 mmHg | 8 to 24 h | 6.9 | 8.3 | 6.8 | – | – | –
5 | COC(=O)C1=C(C)NC(C)=C(C(=O)OCCN2CCCN(C(c3ccccc3)c3ccccc3)CC2)C1c1cccc([N+](=O)[O-])c1 (stereo not drawn) [Example 15, 2-(4-benzhydrylhomopiperazin-1-yl)-ethyl methyl 2,6-dimethyl-4-(3-nitrophenyl)-1,4-dihydropyridine-3,5-dicarboxylate] | -38 | -18 mmHg | 5 to 8 h | 4.2 | 4.2 | 2.9 | – | – | –
6 | COC(=O)C1=C(C)NC(C)=C(C(=O)OCCN2CCN(c3cccc(C(F)(F)F)c3)CC2)C1c1cccc([N+](=O)[O-])c1 (stereo not drawn) [Example 18, methyl 2-[4-(3-trifluoromethylphenyl)-1-piperazinyl]ethyl 2,6-dimethyl-4-(3-nitrophenyl)-1,4-dihydropyridine-3,5-dicarboxylate] | -68 | -43 mmHg | 8 to 24 h | 8.8 | 4.2 | 5 | – | – | –
7 | COC(=O)C1=C(C)NC(C)=C(C(=O)OCCN2CCN(C(c3ccccc3)c3ccccc3)CC2)C1c1cccc(Cl)c1 (stereo not drawn) [Example 22, 2-(4-benzhydryl-1-piperazinyl)ethyl methyl 4-(3-chlorophenyl)-2,6-dimethyl-1,4-dihydropyridine-3,5-dicarboxylate] | -97 | -83 mmHg | 8 to 24 h | 7.5 | 7.8 | 9.6 | – | – | –
8 | COC(=O)C1=C(C)NC(C)=C(C(=O)OCCN2CCN(C(c3ccccc3)c3ccccc3)CC2)C1c1cccc(C(F)(F)F)c1 (stereo not drawn) [Example 23, 2-(4-benzhydryl-1-piperazinyl)ethyl methyl 2,6-dimethyl-4-(3-trifluoromethylphenyl)-1,4-dihydropyridine-3,5-dicarboxylate] | -59 | -66 mmHg | 8 to 24 h | 6.7 | 9.7 | 10.9 | – | – | –
9 | CCOC(=O)C1=C(C)NC(C)=C(C(=O)OCCN2CCN(C(c3ccc(C)cc3)c3ccc(C)cc3)CC2)C1c1cccc([N+](=O)[O-])c1 (stereo not drawn) [Example 31, 2-[4-(4,4'-dimethylbenzhydryl)-1-piperazinyl]ethyl ethyl 2,6-dimethyl-4-(3-nitrophenyl)-1,4-dihydropyridine-3,5-dicarboxylate] | -77 | -77 mmHg | 8 to 24 h | 3.3 | 4.3 | 1.8 | – | – | –
10 | COC(=O)C1=C(C)NC(C)=C(C(=O)OCCCN2CCN(C(c3ccccc3)c3ccccc3)CC2)C1c1cccc([N+](=O)[O-])c1 (stereo not drawn) [Example 37, 3-(4-benzhydryl-1-piperazinyl)propyl methyl 2,6-dimethyl-4-(3-nitrophenyl)-1,4-dihydropyridine-3,5-dicarboxylate] | -63 | -30 mmHg | ca. 8 hrs. | 8.5 | 10.8 | 11.3 | – | – | –
11 | COC(=O)C1=C(C)NC(C)=C(C(=O)OCCN2CCN(c3ccccc3)CC2)C1c1cccc([N+](=O)[O-])c1 (stereo not drawn) [Example 53, methyl 2-(4-phenyl-1-piperazinyl)ethyl 2,6-dimethyl-4-(3-nitrophenyl)-1,4-dihydropyridine-3,5-dicarboxylate] | -60 | -34 mmHg | ca. 8 hrs. | – | – | – | – | – | –
12 | COC(=O)C1=C(C)NC(C)=C(C(=O)OCCN2CCN(c3ccc(C)c(Cl)c3)CC2)C1c1cccc([N+](=O)[O-])c1 (stereo not drawn) [Example 57, 2-[4-(3-chloro-4-methylphenyl)-1-piperazinyl]ethyl methyl 2,6-dimethyl-4-(3-nitrophenyl)-1,4-dihydropyridine-3,5-dicarboxylate] | -85 | -69 mmHg | 8 to 24 h | – | – | – | – | – | –
13 | COC(=O)C1=C(C)NC(C)=C(C(=O)OCCN2CCN(c3cccc(Cl)c3Cl)CC2)C1c1cccc([N+](=O)[O-])c1 (stereo not drawn) [Example 58, 2-[4-(2,3-dichlorophenyl)-1-piperazinyl]ethyl methyl 2,6-dimethyl-4-(3-nitrophenyl)-1,4-dihydropyridine-3,5-dicarboxylate] | -27 | -39 mmHg | 8 to 24 h | – | – | – | – | – | –
14 | COC(=O)C1=C(C)NC(C)=C(C(=O)OCCN2CCN(C(c3ccccc3)c3ccccc3)CC2)C1c1cccc2nonc12.Cl.Cl (stereo not drawn) [Example 60, 2-(4-benzhydryl-1-piperazinyl)ethyl methyl 4-(2,1,3-benzoxadiazol-4-yl)-2,6-dimethyl-1,4-dihydropyridine-3,5-dicarboxylate dihydrochloride] | -98 | -90 mmHg | 8 to 24 h | – | – | – | – | – | –
15 | COC(=O)C1=C(C)NC(C)=C(C(=O)OCCN(C)Cc2ccccc2)C1c1cccc([N+](=O)[O-])c1 (stereo not drawn) [Nicardipine.HCl, reference compound] | -38 | +2 mmHg | < 5 h | -15 | -1.9 | 0.3 | – | – | –
16 | COC(=O)C1=C(C)NC(C)=C(C(=O)OC)C1c1ccccc1[N+](=O)[O-] [Nifedipine, reference compound] | -45 | -3 mmHg | < 5 h | – | – | – | 3 | 3.1 | 2.2
